Measurements from patent publication US12239643B2, “Therapeutic agent for inflammatory diseases, autoimmune diseases, fibrotic diseases, and cancer diseases” (MEIJI SEIKA PHARMA CO., LTD., priority 2018, dated 2025).
pIC50: −log10 of the molar value.

Assays:
Format in all cases: cell-based
[1] = test system: SU-DHL-4 (blood cancer (lymphoma)); experiment: Antitumor activity: growth inhibition of SU-DHL-4; conditions: Homo sapiens, 120 h; SU-DHL-4, culturing for 5 days; read-out: 50% growth inhibitory concentration
Method: As antitumor activity, 50% growth inhibitory concentration of various cancer cells (CEM-C1 (blood cancer (leukemia)), SU-DHL-4 (blood cancer (lymphoma)), A549 (lung cancer), HCT-116 (colorectal cancer), and Daoy (brain tumor)) was calculated as follows. First, each of the above cancer cells was seeded on a 384-well plate and cultured overnight at 37° C. under 5% CO2. After that, the test compound was added at various concentrations on the next day, and each number of cells was measured after culturing for 5 days. The 50% growth inhibitory concentration was defined as the test compound concentration at which the number of cells measured is an intermediate value between the number of cells after culture for 5 days under the same conditions without the addition of the test compound and the number of cells at the time of seeding (before the start of culture). The measurement results obtained by measuring the 50% growth inhibitory concentration of the test compound by the above method were evaluated in accordance with the following evaluated basis; A: less than 10 μM, B: 10 μM or more and less than 50 μM, and C: 50 μM or more. As a result of using apremilast as the test compound, the evaluation was C in all cancer cells. On the other hand, as a result of using the compound obtained in Example 248 as the test compound, the evaluation was A in all cancer cells.

TNFα = experiment: Cytokine suppression using human T cells: TNFα; conditions: T-cell; human CD3-positive T cells, CD3 antibody, about 18 hours; read-out: TNFα Inhibitory Activity, Human T-Cell (Test Example 5)
Method: (§1) First, CD3-positive T cells were separated from whole blood by a magnetic bead method using an EasySep cell separation kit. Separated T cells suspended in RPMI-1640 medium were seeded on a 96-well plate previously coated with CD3 antibody (final concentration 3 μg/mL). Further, CD28 antibody (final concentration 5 ng/mL) was added as an IL-5 production stimulus and an IL-13 production stimulus. A test compound dissolved in dimethyl sulfoxide was added to each well, followed by culture at 37° C. under 5% CO2. The culture was carried out for about 18 hours for the evaluation of the amount of TNFα, and for about 48 hours for the evaluation of the amounts of IL-17A, IL-5, and IL-13. […]
(§2) The measurement results obtained by measuring the TNFα inhibitory activity (50% inhibitory concentration) of the test compounds by the above method were evaluated in accordance with the following evaluated basis; A: less than 10 nM, B: 10 nM or more and less than 100 nM, and C: 100 nM or more. In addition, the measurement results obtained by measuring the IL-17A inhibitory activity, IL-5 inhibitory activity, and IL-13 inhibitory activity (50% inhibitory concentration) of the test compounds were evaluated in accordance with the following evaluated basis; A: less than 500 nM, B: 500 nM or more and less than 5000 nM, and C: 5000 nM or more.

IL-5 = experiment: Cytokine suppression using human T cells: IL-5; conditions: T-cell; human CD3-positive T cells, CD3 and CD28 antibody, about 48 hours; read-out: IL-5 Inhibitory Activity, Human T-Cell (Test Example 5)
Method: as §1, §2

IL-13 = experiment: Cytokine suppression using human T cells: IL-13; conditions: T-cell; human CD3-positive T cells, CD3 and CD28 antibody, about 48 hours; read-out: IL-13 Inhibitory Activity, Human T-Cell (Test Example 5)
Method: as §1, §2

IL-4 = experiment: Cytokine suppression using human peripheral blood mononuclear cells: IL-4; conditions: human PBMC, CD3 antibody and CD28 antibody; read-out: IL-4 Inhibitory Activity, Human PBMC (Test Example 4)
Method: (§3) First, peripheral blood mononuclear cells (PBMC) were separated from whole blood by specific gravity centrifugation. Then, the isolated peripheral blood mononuclear cells were added to RPMI-1640 medium (containing 10% fetal bovine serum, penicillin, streptomycin, L-glutamine, and 2-mercaptoethanol), and cultured in a 96-well plate at 37° C. under 5% CO2 for 0 to 1 hour. The test compound dissolved in dimethyl sulfoxide was added to each well, followed by further culture at 37° C. under 5% CO2 for 1 hour. A medium containing only dimethyl sulfoxide instead of the test compound was added to the control well. […]
as §2, with “TNFα inhibitory activity and IL-5” for “TNFα”, “IL-23 inhibitory activity, IL-4” for “IL-5”

IL-23 = experiment: Cytokine suppression using human peripheral blood mononuclear cells: IL-23; conditions: human PBMC, lipopolysaccharide 1 ng/mL; read-out: IL-23 Inhibitory Activity, Human PBMC (Test Example 4)
Method: as §3
as §2, with “TNFα inhibitory activity and IL-5” for “TNFα”, “IL-23 inhibitory activity, IL-4” for “IL-5”

Compound | pIC50 [1] | pIC50 (TNFα) | pIC50 (IL-5) | pIC50 (IL-13) | pIC50 (IL-4) | pIC50 (IL-23)
CCOc1cc([C@@H](CS(C)(=O)=O)N2C(=O)c3cccc(NC(C)=O)c3C2=O)ccc1OC [apremilast, reference compound] | ≤ 4.30 | < 7.00 | ≤ 5.30 | 5.30 to 6.30 | ≤ 5.30 | ≤ 5.30
CC(C)(O)C(F)(F)Oc1ccc(-c2nccs2)c2oc(N3CC4CC(C3)N4)nc12 [Example 248, 1-((2-(3,6-Diazabicyclo[3.1.1]heptan-3-yl)-7-(thiazol-2-yl)benzo[d]oxazol-4-yl)oxy)-1,1-difluoro-2-methylpropan-2-ol] | > 5.00 | > 8.00 | > 6.30 | > 6.30 | > 6.30 | > 6.30
